Data as given in US9409884B2 (Rigel Pharmaceuticals, Inc., priority 2012, dated 2016).

Target: AMPK
Experiment: AMPK activation, enzyme-linked immunosorbent assay
Type: biochemical
Conditions: Table 8, compounds of Table 1
In short: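 AMPK activation by test compounds was measured by enzyme-linked immunosorbent assay.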

EC50	SMILES
500 to 1000 nM	CC(C)(C)OC(=O)N1CCC(NC(=O)c2cc3ccc(OC4CCN(c5ccc(C(F)(F)F)cc5)CC4)cc3s2)CC1 [Compound 1-140, tert-butyl 4-(6-(1-(4-(trifluoromethyl)phenyl)piperidin-4-yloxy)benzo[b]thiophene-2-carboxamido) piperidine-1-carboxylate]
500 to 1000 nM	CC(C)(C)OC(=O)N1CCC(NC(=O)c2cc3cc(OC4CCN(c5ccc(C(F)(F)F)cc5)CC4)ccc3o2)CC1 [Compound 1-85, tert-butyl 4-(5-(1-(4-(trifluoromethyl)phenyl)piperidin-4-yloxy)benzofuran-2-carboxamido) piperidine-1-carboxylate]
< 100 nM	CN(C(=O)c1cc2cc(OC3CCN(c4ccc(C(F)(F)F)cc4)CC3)ccc2o1)C1CCN(Cc2ccc(C#N)cc2)CC1 [Compound 1-107, N-(1-(4-cyanobenzyl)piperidin-4-yl)-N-methyl-5-(1-(4-(trifluoromethyl)phenyl)piperidin-4-yloxy)benzofuran-2-carboxamide]
100 to 500 nM	N#Cc1cccc(CN2CCC(NC(=O)c3cc4ccc(OC5CCN(c6ccc(C(F)(F)F)cc6)CC5)cc4s3)CC2)c1 [Compound 1-145, N-(1-(3-cyanobenzyl)piperidin-4-yl)-6-(1-(4-(trifluoromethyl)phenyl)piperidin-4-yloxy)benzo [b]thiophene-2-carboxamide]
1000 to 5000 nM	O=C(N[C@@H]1CCN(Cc2ccccn2)C1)c1cc2cc(OC3CCN(c4ccc(C(F)(F)F)cc4)CC3)ccc2o1 [Compound 1-124, (R)-N-(1-(pyridin-2-ylmethyl)pyrrolidin-3-yl)-5-(1-(4-(trifluoromethyl)phenyl)piperidin-4-yloxy)benzofuran-2-carboxamide]
1000 to 5000 nM	O=C(O)c1ccc(CN2CCC(NC(=O)c3ccc(OC4CCN(c5ccc(C(F)(F)F)cc5)CC4)nc3)CC2)cc1 [Compound 1-46, 4-((4-(6-(1-(4-(trifluoromethyl)phenyl)piperidin-4-yloxy)nicotinamido)piperidin-1-yl)methyl) benzoic acid]
500 to 1000 nM	N#Cc1ccc(CN2CCC(NC(=O)c3cc4ccc(OC5CCN(Cc6cnn(-c7ccc(C#N)cc7)c6)CC5)cc4o3)CC2)cc1 [Compound 1-161, N-(1-(4-cyanobenzyl)piperidin-4-yl)-6-(1-((1-(4-cyanophenyl)-1H-pyrazol-4-yl)methyl)piperidin-4-yloxy)benzofuran-2-carboxamide]

Same assay, conditions: Table 9, compounds of Table 2

EC50	SMILES
< 500 nM	O=C(NC1CCN(Cc2ccncc2)CC1)c1ccc2[nH]c3c(c2c1)CN(Cc1ccc(C(F)(F)F)cc1)CC3 [Compound 2-50, N-(1-(pyridin-4-ylmethyl)piperidin-4-yl)-2-(4-(trifluoromethyl)benzyl)-2,3,4,5-tetrahydro-1H-pyrido[4,3-b]indole-8-carboxamide]
500 to 1000 nM	CC(C)(C)OC(=O)N1CCC(NC(=O)c2ccc3[nH]c4c(c3c2)CN(Cc2ccc(C(F)(F)F)cc2)CC4)CC1 [Compound 2-6, tert-butyl 4-(2-(4-(trifluoromethyl)benzyl)-2,3,4,5-tetrahydro-1H-pyrido[4,3-b]indole-8-carboxamido)piperidine-1-carboxylate]

Same assay, conditions: Table 10, compounds of Table 3

EC50	SMILES
< 100 nM	O=C(NC1CCN(Cc2ccncc2)CC1)c1cn2ccc(OC3CCN(c4ccc(C(F)(F)F)cc4)CC3)cc2n1 [Compound 3-17, N-(1-(pyridin-4-ylmethyl)piperidin-4-yl)-7-(1-(4-(trifluoromethyl)phenyl)piperidin-4-yloxy)imidazo[1,2-a]pyridine-2-carboxamide]

Same assay, conditions: Table 11, compounds of Table 4

EC50	SMILES
1000 to 5000 nM	CS(=O)(=O)c1ccc(CN2CCN(C(=O)c3ccc(C(=O)NC4CCN(Cc5ccc(C#N)cc5)CC4F)cn3)CC2)cc1 (stereo not drawn) [Compound 4-13, N-((3,4-trans)-1-(4-cyanobenzyl)-3-fluoropiperidin-4-yl)-6-(4-(4-(methylsulfonyl)benzyl)piperazine-1-carbonyl)nicotinamide]

Same assay, conditions: Table 12, compounds of Table 5

EC50	SMILES
1000 to 10000 nM	CC(C)(C)OC(=O)N1CCN(C(=O)c2ccc(OC3CCN(Cc4ccccc4)CC3)cc2)CC1 [Compound 5-99, tert-butyl 4-(4-(1-benzylpiperidin-4-yloxy)benzoyl)piperazine-1-carboxylate]
< 1000 nM	O=C(NC1CCN(Cc2ccccc2)CC1)c1ccc(OC2CCN(Cc3ccc(F)cc3)CC2)c(Cl)c1 [Compound 5-19, N-(1-benzylpiperidin-4-yl)-3-chloro-4-(1-(4-fluorobenzyl)piperidin-4-yloxy)benzamide]
20000 to 50000 nM	O=C(NC1CCN(Cc2ccccc2)CC1)c1cccc(OC2CCN(Cc3ccccc3)CC2)c1 [Compound 5-13, N-(1-benzylpiperidin-4-yl)-3-(1-benzylpiperidin-4-yloxy)benzamide]
> 100000 nM	N#Cc1ccc(CN2CCC(Oc3ccc(C(=O)NC4CCNCC4)cc3)CC2)cc1 [Compound 5-79, 4-(1-(4-cyanobenzyl)piperidin-4-yloxy)-N-(piperidin-4-yl)benzamide]
< 1000 nM	COc1ccc(CN2CCC(NC(=O)c3cccc(OC4CCN(Cc5ccc(C(F)(F)F)cc5)CC4)c3)CC2)cc1 [Compound 5-108, N-(1-(4-methoxybenzyl)piperidin-4-yl)-3-(1-(4-(trifluoromethyl)benzyl)piperidin-4-yloxy)benzamide]

Same assay, conditions: Table 13, compounds of Table 6

EC50	SMILES
< 100 nM	N#Cc1ccc(CN2CCC(NC(=O)c3cc4cc(C(=O)N5CCN(Cc6ccc(-c7ccccn7)cc6)CC5)ccc4o3)CC2)cc1 [Compound 6-82, N-(1-(4-cyanobenzyl)piperidin-4-yl)-5-(4-(4-(pyridin-2-yl)benzyl)piperazine-1-carbonyl)benzofuran-2-carboxamide]
< 100 nM	CS(=O)(=O)c1ccc(CN2CCN(c3ccc4oc(C(=O)NC5CCN(Cc6ccc(C#N)cc6)CC5)cc4c3)CC2)cc1 [Compound 6-10, N-(1-(4-cyanobenzyl)piperidin-4-yl)-5-(4-(4-(methylsulfonyl)benzyl)piperazin-1-yl)benzofuran-2-carboxamide]
< 100 nM	COc1ccc(CN2CCC(NC(=O)c3cc4cc(C(=O)N5CCN(Cc6ccc(C(F)(F)F)cc6)CC5)ccc4o3)CC2)cc1F [Compound 6-129, N-(1-(3-fluoro-4-methoxybenzyl)piperidin-4-yl)-5-(4-(4-(trifluoromethyl)benzyl)piperazine-1-carbonyl) benzofuran-2-carboxamide]
< 100 nM	N#Cc1ccc(CN2CCC(NC(=O)c3cc4cc(C(=O)N5CCC(Oc6ccc(S(=O)(=O)C(F)(F)F)cc6)CC5)ccc4o3)CC2)cc1 [Compound 6-124, N-(1-(4-cyanobenzyl)piperidin-4-yl)-5-(4-(4-(trifluoromethylsulfonyl)phenoxy)piperidine-1-carbonyl)benzofuran-2-carboxamide]
< 100 nM	COc1ccc(CN2CCC(NC(=O)c3cc4cc(C(=O)N5CCC(Oc6ccc(C(F)(F)F)cc6)CC5)ccc4o3)CC2)cc1 [Compound 6-25, N-(1-(4-methoxybenzyl)piperidin-4-yl)-5-(4-(4-(trifluoromethyl)phenoxy)piperidine-1-carbonyl) benzofuran-2-carboxamide]
< 100 nM	CS(=O)(=O)c1ccc(CN2CCN(C(=O)c3ccc4oc(C(=O)NC5CCN(Cc6ccc(C(F)(F)F)cc6)CC5)cc4c3)CC2)cc1 [Compound 6-144, 5-(4-(4-(methylsulfonyl)benzyl)piperazine-1-carbonyl)-N-(1-(4-(trifluoromethyl)benzyl)piperidin-4-yl)benzofuran-2-carboxamide]
100 to 1000 nM	COc1ccc(-n2cc(C(=O)Nc3ccc4oc(C(=O)NC5CCN(Cc6ccc(C#N)cc6)CC5)cc4c3)cn2)cc1 [Compound 6-59, N-(2-(1-(4-cyanobenzyl)piperidin-4-ylcarbamoyl)benzofuran-5-yl)-1-(4-methoxyphenyl)-1H-pyrazole-4-carboxamide]

Same assay, conditions: Table 14, compounds of Table 7

EC50	SMILES
1000 to 10000 nM	CCNS(=O)(=O)c1ccc(CN2CCN(C(=O)c3ccc(C(=O)Nc4ccc(Oc5ccc(C(C)=O)cc5)nc4)cn3)CC2)cc1 [Compound 7-92, N-(6-(4-acetylphenoxy)pyridin-3-yl)-6-(4-(4-(N-ethylsulfamoyl)benzyl)piperazine-1-carbonyl) nicotinamide]
< 1000 nM	CC(=O)c1ccc(OC2CCN(C(=O)c3ccc(C(=O)NC4CCN(Cc5ccc(C#N)cc5)C[C@H]4F)cn3)CC2)cc1 (stereo partly drawn) [Compound 7-74, 6-(4-(4-acetylphenoxy)piperidine-1-carbonyl)-N-((3,4-trans)-1-(4-cyanobenzyl)-3-fluoropiperidin-4-yl)nicotinamide]
< 1000 nM	N#Cc1ccc(O[C@H]2CC[C@@H](NC(=O)c3ccc(C(=O)N4CCC(C(=O)c5ccc(N6CCCC6)cc5)CC4)nc3)CC2)cc1 [Compound 7-112, N-((cis)-4-(4-cyanophenoxy)cyclohexyl)-6-(4-(4-(pyrrolidin-1-yl)benzoyl)piperidine-1-carbonyl)nicotinamide]
< 1000 nM	Cc1cc(OC2CCN(C(=O)c3ccc(C(=O)NC4CCN(Cc5ccc(OC(F)(F)F)cc5)C[C@H]4F)cn3)CC2)ccc1S(C)(=O)=O (stereo partly drawn) [Compound 7-47, N-((3,4-trans)-3-fluoro-1-(4-(trifluoromethoxy)benzyl)piperidin-4-yl)-6-(4-(3-methyl-4-(methylsulfonyl)phenoxy)piperidine-1-carbonyl) nicotinamide]
< 1000 nM	COc1ccc(C(=O)C2CCN(C(=O)c3ccc(C(=O)N[C@H]4CCN(Cc5ccc(C#N)cc5)C[C@@H]4F)cn3)CC2)cc1 (single isomer, unassigned) [Compound 7-107]
< 1000 nM	CC(=O)c1ccc(OC2CCN(C(=O)c3ccc(C(=O)NC4CCN(Cc5ccc(OC(F)(F)F)cc5)C[C@H]4F)cn3)CC2)cc1 (stereo partly drawn) [Compound 7-52, 6-(4-(4-acetylphenoxy)piperidine-1-carbonyl)-N-((3,4-trans)-3-fluoro-1-(4-(trifluoromethoxy)benzyl)piperidin-4-yl)nicotinamide]
< 1000 nM	COc1ccc(C(=O)C2CCN(C(=O)c3ccc(C(=O)NC4CCN(Cc5ccc(F)c(C(F)(F)F)c5)C[C@H]4F)cn3)CC2)cc1 (stereo partly drawn) [Compound 7-45, N-((3,4-trans)-3-fluoro-1-(4-fluoro-3-(trifluoromethyl)benzyl)piperidin-4-yl)-6-(4-(4-methoxybenzoyl)piperidine-1-carbonyl)nicotinamide]
